Assay results taken from patent publication US20100273726A1, “METHICILLIN-RESISTANT STAPHYLOCOCCUS AUREUS ACTIVE METABOLITES ISOLATED FROM LAURUS NOBILIS AND COMBINATIONS THEREOF” (TRITON BIOPHARMA, priority 2009, published 2010).

Assays:
[1] = system: Methicillin-resistant Staphylococcus aureus; experiment: In vivo MRSA assay, thigh infection in neutropenic mice; design: species or system Mice (CD-1); details: for number of MRSA cfu per gram of muscle tissue: sacrificed after 48 hours; for reduction compared to vehicle control: 48 hours
Description: The in vivo antimicrobial activity for the isolated glycosides is represented in FIGS. 2A and 2B. Mice (CD-1) were purchased from Harlan Inc. and acclimatized up to 5 days before use. Food and water were available ad libitum throughout the study. They were rendered neutropenic by two injections of cyclophosphamide (100 mg/kg) given intraperitoneally, one and four days before infection. A volume of 50 uL suspension of Methicillin-resistant Staphylococcus aureus (1.5×10^6 live organisms) was injected intramuscularly (1M) into each of the two rear thighs. Each thigh was considered as an individual data point (total of 4 data points for each treatment). These mice were randomly distributed into the control or treatment groups (n=2/group).
Treatment with the test compound (1) was initiated via the intraperitoneal route 2 hrs after thigh inoculation. Control animals were concurrently administered saline (mock treatment) or vancomycin in the same volume as those receiving compound (1). All animals were sacrificed after 48 hours by CO2 inhalation. Immediately following sacrifice, thigh tissue was collected from the animals, weighed, and homogenized in 5.0 mL of saline. Thigh muscle homogenate was then processed for microbiological assay to determine the number of MRSA cfu per gram of muscle tissue.

[2] = preliminary maximum tolerated dose experiment; format: in vivo; details: maximum of 20 mg/kg IP for two days
Description: The number of MRSA isolated from vancomycin treated animals was 2.2×10^7 g of tissue, a reduction of 72% compared to vehicle control. Similarly, the number of MRSA recovered after treatment with compound (1) at 3 mg/kg and 15 mg/kg were 2.6×10^7 and 1.8×10^7 respectively, which correspond to a reduction of 67% and 78% as compared to vehicle control. […] To determine the maximum tolerated dose in the preliminary experiment, a maximum of 20 mg/kg of compound (1) was giving IP for two days.

[3] = system: methicillin resistant Staphylococcus aureus (MRSA); experiment: in vitro antimicrobial evaluation (modified CLSI method); format: cell-based; details: IC50 from percent growth versus test concentration
Description: The in vitro antimicrobial activity for the isolated glycosides is represented in FIG. 1. A modified version of CLSI (formerly NCCLS) method was used for the in vitro evaluation of test samples. Duplicate samples were transferred to 96-well microplates after diluting with 0.9% saline. The microbial cell suspensions were to give the desired target inocula after addition to the samples. Media and solvent controls were included in each assay. The IC50 was calculated by plotting percent growth versus test concentration.

MRSA = details: background statement; cited from earlier work
[4] = vancomycin control, dose not given

Compound: C[C@@H]1O[C@@H](Oc2c(-c3ccc(O)cc3)oc3cc(O)cc(O)c3c2=O)[C@H](OC(=O)/C=C/c2ccc(O)cc2)[C@H](OC(=O)/C=C/c2ccc(O)cc2)[C@H]1O [compound 1, kaempferol 3-O-α-L-(2″,3″-di-E-p-coumaroyl)rhamnoside]
- number of MRSA cfu per gram of muscle tissue ([1]; 3 mg/kg intraperitoneal, 2 hrs after inoculation): 2.6×10^7 cfu/g
- reduction compared to vehicle control ([1]; 3 mg/kg intraperitoneal): 67%
- number of MRSA cfu per gram of muscle tissue ([1]; 15 mg/kg intraperitoneal, 2 hrs after inoculation): 1.8×10^7 cfu/g
- reduction compared to vehicle control ([1]; 15 mg/kg intraperitoneal): 78%
- acute toxicity / untoward effect [2]: No untoward effect

Compound: C[C@@H]1O[C@@H](Oc2c(-c3ccc(O)cc3)oc3cc(O)cc(O)c3c2=O)[C@H](OC(=O)/C=C\c2ccc(O)cc2)[C@H](OC(=O)/C=C\c2ccc(O)cc2)[C@H]1O [compound 4, kaempferol 3-O-α-L-(2″,3″-di-Z-p-coumaroyl)rhamnoside]
- in vitro activity (rank among the four compounds) [3]: most potent

Compound: CN[C@H](CC(C)C)C(=O)N[C@H]1C(=O)N[C@@H](CC(N)=O)C(=O)N[C@H]2C(=O)N[C@H]3C(=O)N[C@H](C(=O)N[C@H](C(=O)O)c4cc(O)cc(O)c4-c4cc3ccc4O)[C@H](O)c3ccc(c(Cl)c3)Oc3cc2cc(c3O[C@@H]2O[C@H](CO)[C@@H](O)[C@H](O)[C@H]2O[C@H]2C[C@](C)(N)[C@H](O)[C@H](C)O2)Oc2ccc(cc2Cl)[C@H]1O [vancomycin, reference compound]
- reduction compared to vehicle control [1, 4]: 72%
- number of MRSA cfu per gram of muscle tissue [1, 4]: 2.2×10^7 cfu/g
- success rate (MRSA): 35-57%
